Test results reported in article PMC10680098 (Nature, 2023).

Legend:
[1] = in vitro intrinsic clearance; format: in vitro ADME; settings: metabolic stability, details in SI
[2] = system: CFTR, cystic fibrosis transmembrane conductance regulator; experiment: CFTR rescue activity; format: cell-based; settings: result given in words only; RC50 value is in Fig. 4b, which could not be read
[3] = solubility at different pH values; format: physicochemical; settings: at all measured pH values

SMILES | in vitro intrinsic clearance (CLint) [1] | in vitro intrinsic clearance (CLint) ([1]; listed as Cuba-Lumacaftor) | activity (half-maximal rescue concentration, RC50) [2] | solubility compared to the parent benzene-containing drug [3]
Cc1ccc(NC(=O)C2(c3ccc4c(c3)OC(F)(F)O4)CC2)nc1C12C3C4C5C3C1C5(C(=O)O)C42 (stereo not drawn) [compound 56, Cuba-Lumacaftor] | < 7 μL/min/10^6 cells | 6.98 μL/min/10^6 cells | high activity | improved solubility
Cc1ccc(NC(=O)C2(c3ccc4c(c3)OC(F)(F)O4)CC2)nc1-c1cccc(C(=O)O)c1 [compound 57, reference compound] | 11.96 μL/min/10^6 cells |  |  | 
CCN(CC)CCNC(=O)C12C3C4C1C1C2C3C41NC(C)=O (stereo not drawn) [compound 58, Cuba-Acecainide] | < 7 μL/min/10^6 cells |  |  | 
